In patent publication US20050064507A1, “Determining kinase specificity” (priority 2003, published 2005):
Square brackets hold non-standard residues; d marks the D form. Ends that are not written are not given here. pS = N[C@@H](COP(=O)(O)O)C(=O)O

Assays:
pPKC Ab = pPKC Ab binding to peptides phosphorylated in vitro by PKC-theta; conditions: for pPKC Ab binding to peptide: before/after phosphorylation by PKC-theta
Procedure: Synthetic peptides chosen from those shown in Table 4 were subjected to phosphorylation by PKC-theta, Assay conditions were similar to those described herein, except that the phosphorylation reaction was for 30 minutes at 30° C. and then overnight at 4° C. The reaction mixture was applied to HB avidin-coated plates, the plates washed, and then pPKC Ab binding assayed.

PKC-theta = biological target: T1, PKC-theta (Homo sapiens, UniProt Q04759); experiment: In vitro kinase assay: peptide phosphorylation by PKC-theta; type: biochemical; conditions: Table 8
T1 construct: His-tag; made in house; host or cells: baculovirus-infected Sf9 cells
T1 sequence (Q04759 whole entry): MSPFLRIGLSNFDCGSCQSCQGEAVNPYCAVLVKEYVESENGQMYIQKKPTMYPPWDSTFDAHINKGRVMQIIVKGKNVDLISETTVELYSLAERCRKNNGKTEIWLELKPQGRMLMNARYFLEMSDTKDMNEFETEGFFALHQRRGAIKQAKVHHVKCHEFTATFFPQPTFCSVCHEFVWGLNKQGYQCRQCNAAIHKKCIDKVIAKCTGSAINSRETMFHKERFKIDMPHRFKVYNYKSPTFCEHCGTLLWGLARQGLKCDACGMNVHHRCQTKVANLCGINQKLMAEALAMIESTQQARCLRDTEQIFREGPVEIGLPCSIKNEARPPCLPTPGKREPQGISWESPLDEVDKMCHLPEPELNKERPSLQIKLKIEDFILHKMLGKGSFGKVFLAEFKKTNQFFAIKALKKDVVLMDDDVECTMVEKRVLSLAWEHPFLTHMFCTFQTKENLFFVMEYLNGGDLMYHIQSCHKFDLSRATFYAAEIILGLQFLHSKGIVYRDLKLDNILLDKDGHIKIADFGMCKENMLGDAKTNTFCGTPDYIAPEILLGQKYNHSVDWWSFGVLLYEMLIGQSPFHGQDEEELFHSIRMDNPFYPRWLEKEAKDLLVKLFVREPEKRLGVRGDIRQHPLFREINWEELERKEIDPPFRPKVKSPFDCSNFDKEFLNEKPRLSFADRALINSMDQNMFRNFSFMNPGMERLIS
From the text: A second strategy for validation of the PSSM derived from the methods described herein is to identify sequences represented in the human proteome that have low percentiles derived from the PSSM, to synthesize peptides that have those sequences, and test the efficiency of phosphorylation of those peptides by the kinase of interest. […] The results are shown for individual peptides (FIG. 11, panel A) or for groups of peptides aggregated by percentile prediction (FIG. 11, panel B). As with the testing described above with prospectively chosen peptides, the percentile scores are highly predictive of phosphorylation by the relevant kinase.
An example of the purification procedure used for production of active kinase is as follows. A preparation of PKC-theta was prepared using a Gateway expression construct containing PKC-theta that was expressed in baculovirus, which were used to infect Sf9 cells. The cell pellet from a liter of baculovirus-infected Sf9 cells was resuspended in 20 volumes (60 ml) of extraction buffer (20 mM Na phosphate buffer pH 7.5, 500 mM NaCl, 5 mM pyrophosphate, 10% glycerol, 10 mM imidazole, 1 mM PMSF), sonicated twice for one minute (1 cm tip at 60% power and 50% duty cycle) and cell disruption was verified microscopically. The sample was adjusted to five mM MgCl2 and treated with one U benzonase/ml for an additional 20 minute on ice. The sample was clarified by centrifugation in a JA-20 rotor at 15K for 30 min at 4° C., filtered through a […] filter and applied at 0.5 ml/min to a one ml chelating sepharose column previously charged with nickel and equilibrated with extraction buffer. The column was washed with extraction buffer at one ml/min to baseline and eluted in a 20 ml gradient (20-500 mM imidazole in extraction buffer) into one ml fractions that were analyzed by SDS-PAGE. Fractions with the highest concentration of protein were pooled, were dialyzed twice against one liter of 20 mM Na PO4 pH 7.5, 50 mM NaCl buffer. The kinase pool was dialyzed twice against 20 mM HEPES pH 7.4, 100 mM NaCl, 2 mM EDTA, 5 mM DTT, 0.05% Triton-X-100. After dialysis, the sample was adjusted to 50% glycerol and quick-frozen in a dry ice/ethanol bath.
(§1) The conditions of the kinase assay and the amount of active kinase used varied with the kinase and with the accuracy needed. For a typical experiment, 5-20 ng of kinase was used per well and each peptide pool was assayed in duplicate wells. Note that the absolute amount of kinase used was not usually a critical parameter, because the desired information related to specificity of the kinase not its absolute activity, and robustness of the assay depends on comparisons of the same amount of kinase on different peptides. The combination of kinase concentration and assay duration was modified to assure that the stoichiometry of peptide phosphorylation never exceeded 5%. The choice of kinase buffer depended on the kinase being analyzed. For studies of PKC, 100 mM HEPES, 0.05% Triton-X100, 1 mM CaCl2, 20 mM MgCl2, 0.2 mg/ml phosphatidyl serine (Avanti Polar Lipids), PMA 100 ng/ml was typically used. The lipid stock was prepared by transferring 3 mg phosphatidyl serine into iced mixture of 450 μl water plus 50 μl of 10% Triton-X100, sonicating 10 times on ice for 1 sec each.
The kinase reaction mixture was assembled by sequential addition to a tube held on ice of: 5 μl peptide (100 μM for final concentration of 10 μM), 15 μl of kinase (typically 5 ng/well, in appropriate kinase buffer), 30 μl of ATP (1 uCi/well of ^32P-gamma ATP in a stock of 167 μM cold ATP in the kinase buffer; for final concentration for 100 μM ATP). The mixture was rapidly warmed to desired reaction temperature (30° C. for PKC) and incubated for the desired duration (usually 10 minutes). The kinase assay was terminated by transfer to 4° C. water batch, and rapid addition of an equal volume (50 μl) of stop solution [0.1M ATP+0.1M EDTA in water, pH 8]. […]

PKC-delta = biological target: T2, PKC-delta (Homo sapiens, UniProt Q05655); experiment: In vitro kinase assay: peptide phosphorylation by PKC-delta; type: biochemical; conditions: peptide concentration of 10 nM; percentage of phosphorylation of the best validating peptide substrate
T2 construct: purchased Calbiochem
T2 sequence (Q05655 whole entry): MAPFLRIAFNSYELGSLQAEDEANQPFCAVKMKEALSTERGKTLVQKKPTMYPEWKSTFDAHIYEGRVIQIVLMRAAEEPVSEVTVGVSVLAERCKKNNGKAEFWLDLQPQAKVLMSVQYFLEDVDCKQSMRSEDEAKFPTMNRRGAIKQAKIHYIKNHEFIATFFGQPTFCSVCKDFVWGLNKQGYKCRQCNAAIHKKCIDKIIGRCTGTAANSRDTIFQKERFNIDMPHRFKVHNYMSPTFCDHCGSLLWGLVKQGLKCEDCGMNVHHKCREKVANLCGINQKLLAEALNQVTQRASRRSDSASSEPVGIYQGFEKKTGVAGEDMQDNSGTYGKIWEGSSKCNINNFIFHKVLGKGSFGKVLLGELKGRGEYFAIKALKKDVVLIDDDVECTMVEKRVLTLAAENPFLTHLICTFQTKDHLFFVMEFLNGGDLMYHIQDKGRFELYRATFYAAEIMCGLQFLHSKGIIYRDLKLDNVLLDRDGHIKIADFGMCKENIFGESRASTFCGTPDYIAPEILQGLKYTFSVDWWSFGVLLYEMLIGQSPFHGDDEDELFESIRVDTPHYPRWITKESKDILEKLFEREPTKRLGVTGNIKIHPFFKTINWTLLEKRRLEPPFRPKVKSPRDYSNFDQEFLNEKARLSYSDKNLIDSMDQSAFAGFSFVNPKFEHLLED
From the text: One approach to validating a substrate identification method can involve, for example, comparison of substrate sites predicted by the method with in vitro phosphorylation results obtained using the selected kinase and peptides of known sequences. Such a systematic validation has been performed for the methods described herein. For example, a panel of seventy five peptides was synthesized, the phosphorylation observed for each peptide was experimentally measured, the amount of phosphorylation was quantified, the phosphorylation results for each peptide were normalized to the phosphorylation observed with the best substrate tested and these amounts were compared with predictions made according to the invention and according to the procedures provided by others. These peptides are referred to herein as proteomic peptides because their sequences are chosen from proteins in the human proteome; unlike the test sets employed herein, these peptides include no degenerate positions
Table 2 compares the present predictions with actual measurements of phosphorylation on validating peptides. The method of synthesis of the validating peptides was as described elsewhere in the application, and each included an N-terminal linker sequence of biotinylated-Lys-dansylated-Lys-Pro-Pro-Gly (SEQ ID NO:231). The length of the remaining “core” of the validating peptides ranged from 12-21 residues with one to five S/T residues. In vitro phosphorylation of these validating peptides was measured in the manner described herein. […] In vitro phosphorylation results for the validating peptides were expressed as normalized values, namely as a percentage of phosphorylation of the best validating peptide substrate in the group.
as §1
The kinase reaction mixture was assembled by sequential addition to a tube held on ice of: 5 μl peptide (100 μM for final concentration of 10 μM), 15 μl of kinase (typically 5 ng/well, in appropriate kinase buffer), 30 μl of ATP (1 uCi/well of ^32P-gamma ATP in a stock of 167 μM cold ATP in the kinase buffer; for final concentration for 100 μM ATP). The mixture was rapidly warmed to desired reaction temperature (30° C. for PKC) and incubated for the desired duration (usually 10 minutes). The kinase assay was terminated by transfer to 4° C. water batch, and rapid addition of an equal volume (50 μl) of stop solution [0.1M ATP+0.1M EDTA in water, pH 8].
The peptides were then captured from the reaction mixture by transfer to a Reacti-Bind Streptavidin High Binding Capacity Coated Plates (HBC) (Pierce Biotechnology) as follows. The HBC plates were pre-rinsed three times with PBS/Tween PBS/Tween20 0.05% (PBS/Tween). […]

pPKC antibody = conditions: cited from earlier work

HVRRRRGTFKRSKLRARD [SEQ ID NO 1]
pPKC Ab binding to peptide (pPKC Ab): after phosphorylation but not before

LRRRSLRRSNSISKSPGP [SEQ ID NO 121]
pPKC Ab binding to peptide (pPKC Ab): after phosphorylation but not before

75 (EEAEHKATKARLADK) [compound 75]
Peptide phosphorylation by PKC-theta (PKC-theta): 0
Measured in vitro phosphorylation by PKC-delta (PKC-delta): 0%
pPKC Ab Signal on peptide without exposure to PKC-theta (pPKC Ab): 0.02
pPKC Ab Signal on peptide after exposure to PKC-theta phosphorylation (pPKC Ab; 30 minutes at 30° C. then overnight at 4° C.): 0.02
pPKC Ab Signal amount dependent on PKC phosphorylation (pPKC Ab; difference after minus without exposure): 0.00

229 (WKN[pS]IRH) [compound 229]
binding of pPKC antibody (manufacturer Cell Signaling Technology) (pPKC antibody): binds

230 (RRP[pS]YRK) [compound 230]
binding of pPKC antibody (manufacturer Cell Signaling Technology) (pPKC antibody): binds
